Data from publication PMC8863796 (Communications Biology, 2022).
“And” between values parts separate entries of the source, which are not always exact repeats. Equal values may be shown once. “Also recorded” adds a separate entry of the source. Read-outs that look alike come from different tables or passages of the source.

Columns and labels:
[1] = Cytotoxicity assay (XTT); assay type: cell-based; conditions: human
Protocol: Monolayers of 1.5 × 10^4 cells in 96-well plates were treated for 3 days with various concentrations (semi-log dilutions from 1000 to 10 µM) of the antiviral drugs. Then, 5 mg/ml 2,3-bis-(2-methoxy-4-nitro-5-sulfophenyl)-2H-tetrazolium-5-carboxanilide (XTT) in DMEM was added to the cells in the presence of 0.01% N-methyl dibenzopyrazine methyl sulfate (PMS). After incubating for 4 h at 37 °C, the cells were measured in a spectrophotometer at 492 nm and 620 nm.

[2] = test system: SARS-CoV-2; assay type: cell-based; parameters: Response: unit not given here
[3] = test system: SARS-CoV-2; assay: microbe, parasite or virus in culture; assay type: cell-based; conditions: for EC25: concentration used in combinations; for virus titer: Calu-3, MOI 0.1, three columns per treatment
[4] = target: SARS-CoV-2 exonuclease complex (nsp14/nsp10) (Severe acute respiratory syndrome coronavirus 2, UniProt P0DTD1); assay type: biochemical
[5] = Table S-1, 3 days treatment, XTT, read-out: CC50
[6] = Drug2 100 nM alone (Drug1 0 nM)
[7] = Drug2 1000 nM alone (Drug1 0 nM)
[8] = Drug2 5000 nM alone (Drug1 0 nM)
[9] = 30 nM nsp14/nsp10, 500 nM RNA, 30, 100, 300 µM
[10] = Drug1 100 nM alone (Drug2 0 nM)
[11] = Drug1 1000 nM alone (Drug2 0 nM)
[12] = Drug1 10000 nM alone (Drug2 0 nM)
[13] = Severe acute respiratory syndrome coronavirus 2, 48 h, Calu-3 cells, MOI 0.1, 48-72 h, PFU in Vero E6, NS5A inhibitor at fixed concentration in combinations
[14] = combined with Ombitasvir, Calu-3 cells

COC(=O)N[C@H](C(=O)N1CCC[C@H]1C(=O)Nc1ccc([C@@H]2CC[C@@H](c3ccc(NC(=O)[C@@H]4CCCN4C(=O)[C@@H](NC(=O)OC)C(C)C)cc3)N2c2ccc(C(C)(C)C)cc2)cc1)C(C)C [Ombitasvir]
CC50 at 3 days [1, 5]: 70 ± 12 µM
Response (percentage of inhibition) ([2]; Conc1 0 nM, Conc2 10 nM): 2%
Response (percentage of inhibition) ([2]; Conc1 0 nM, Conc2 100 nM): 20%
Response (percentage of inhibition) ([2]; Conc1 0 nM, Conc2 1000 nM): 50%
Response (percentage of inhibition) ([2]; Conc1 0 nM, Conc2 5000 nM): 75%
Response ([2]; Drug2 10 nM alone (Drug1 0 nM)): 2
Response [2, 6]: 20
Response [2, 7]: 50
Response [2, 8]: 75
combination effect (SynergyFinder) ([2]; with Favipiravir): synergistic (scores above 10)
combination effect (SynergyFinder) ([2]; with RDV): synergistic (scores above 10)
combination effect (SynergyFinder) ([2]; with Sofosbuvir): synergistic (scores above 10)
combination effect (SynergyFinder) ([2]; with Tenofovir): synergistic (scores above 10)
EC25 ([3]; Calu-3 cells): 0.1 µM

CC(C)OC(=O)[C@H](C)N[P@](=O)(OC[C@H]1O[C@@H](n2ccc(=O)[nH]c2=O)[C@](C)(F)[C@@H]1O)Oc1ccccc1 [Sofosbuvir]
CC50 at 3 days [1, 5]: 512 ± 34 µM
Response (percentage of inhibition) ([2]; Conc1 10 nM, Conc2 0 nM): 10%
Response (percentage of inhibition) ([2]; Conc1 100 nM, Conc2 0 nM): 20%
Response (percentage of inhibition) ([2]; Conc1 1000 nM, Conc2 0 nM): 74.62%
Response (percentage of inhibition) ([2]; Conc1 10000 nM, Conc2 0 nM): 76.92%
virus titer ([3]; Drug Concentration 0.01 μM): 6.40E+05 PFU/mL and 1.28E+06 PFU/mL and 9.60E+05 PFU/mL
virus titer ([3]; Drug Concentration 1 μM): 3.52E+05 PFU/mL

Cc1cccc(C)c1OCC(=O)N[C@@H](Cc1ccccc1)[C@@H](O)C[C@H](Cc1ccccc1)NC(=O)[C@H](C(C)C)N1CCCNC1=O [Lopinavir]
inhibition of SARS-CoV-2 exonuclease activity [4, 9]: exonuclease activity was inhibited; also recorded: inhibit the SARS-CoV-2 exonuclease in a concentration-dependent manner, but with less potency than Pibrentasvir and Ombitasvir

CCC(CC)COC(=O)[C@H](C)N[P@](=O)(OC[C@H]1O[C@@](C#N)(c2ccc3c(N)ncnn23)[C@H](O)[C@@H]1O)Oc1ccccc1 [Remdesivir]
CC50 at 3 days [1, 5]: 480 ± 55 µM
Response (percentage of inhibition) ([2]; Conc1 1 nM, Conc2 0 nM): 20%
Response (percentage of inhibition) ([2]; Conc1 10 nM, Conc2 0 nM): 43%
Response (percentage of inhibition) ([2]; Conc1 100 nM, Conc2 0 nM): 76.92%
Response (percentage of inhibition) ([2]; Conc1 1000 nM, Conc2 0 nM): 99.13%
EC99 Mean ([3]; Calu-3 cells, MOI 0.1, 48-72 h, PFU in Vero E6, NS5A inhibitor at fixed concentration in combinations): 1.1 µM
virus titer ([3]; Drug Concentration 0.01 μM, listed as RDV): 6.40E+05 PFU/mL and 5.76E+05 PFU/mL and 6.08E+05 PFU/mL
virus titer ([3]; Drug Concentration 0.1 μM, listed as RDV): 3.20E+05 PFU/mL and 1.92E+05 PFU/mL and 2.56E+05 PFU/mL
virus titer ([3]; Drug Concentration 10 μM): 2.00E+03 PFU/mL
fold improvement of efficacy at the 90% level ([3]; by Pibrentasvir (0.1 μM)): six-
fold improvement of efficacy at the 99% level ([3]; by Pibrentasvir (0.1 μM)): threefold

CC(C)OC(=O)OCOP(=O)(CO[C@H](C)Cn1cnc2c(N)ncnc21)OCOC(=O)OC(C)C [Tenofovir, Tenofovir disoproxil]
CC50 at 3 days [1, 5]: 91 ± 25 µM
excision of the incorporated nucleotide analogue from RNA by the exonuclease ([4]; no inhibitor, 37 °C, 15 min, compared with A-terminated natural RNA): mostly resistant to excision by the SARS-CoV-2 exonuclease
Response ([2]; Drug1 10 nM alone (Drug2 0 nM)): 5
Response [2, 10]: 30
Response [2, 11]: 58.46
Response [2, 12]: 88.46
virus titer ([3]; Drug Concentration 1 μM): 1.02E+06 PFU/mL and 5.76E+05 PFU/mL and 7.98E+05 PFU/mL
virus titer ([3]; Drug Concentration 10 μM): 8.00E+04 PFU/mL and 4.00E+04 PFU/mL and 6.00E+04 PFU/mL
EC50 [3, 13]: 4.3 µM
fold increase of potency ([3]; by Pibrentasvir (0.1 μM)): tenfold

CC(C)c1nc(CN(C)C(=O)N[C@H](C(=O)N[C@@H](Cc2ccccc2)C[C@H](O)[C@H](Cc2ccccc2)NC(=O)OCc2cncs2)C(C)C)cs1 [Ritonavir]
inhibition of SARS-CoV-2 exonuclease activity [4, 9]: exonuclease activity was inhibited; also recorded: inhibit the SARS-CoV-2 exonuclease in a concentration-dependent manner, but with less potency than Pibrentasvir and Ombitasvir

COC(=O)N[C@H](C(=O)N1CCC[C@H]1c1nc(-c2ccc(-c3ccc(-c4c[nH]c([C@@H]5CCCN5C(=O)[C@@H](NC(=O)OC)C(C)C)n4)cc3)cc2)c[nH]1)C(C)C [Daclatasvir]
CC50 at 3 days [1, 5]: 38 ± 5 µM
Response (percentage of inhibition) ([2]; Conc1 0 nM, Conc2 100 nM): 3%
Response (percentage of inhibition) ([2]; Conc1 0 nM, Conc2 500 nM): 10%
Response (percentage of inhibition) ([2]; Conc1 0 nM, Conc2 1000 nM): 45%
Response (percentage of inhibition) ([2]; Conc1 0 nM, Conc2 5000 nM): 62%
Response [2, 6]: 3
Response ([2]; Drug2 500 nM alone (Drug1 0 nM)): 10
Response [2, 7]: 45
Response [2, 8]: 62
combination effect (SynergyFinder) ([2]; with RDV): additive (between 10 and −10)
combination effect (SynergyFinder) ([2]; with the other RdRp inhibitors tested (Fig. 8b-d)): synergistic (scores above 10)
EC25 ([3]; Calu-3 cells): 0.5 µM
EC50 [3, 13]: 0.7 µM
EC90 [3, 13]: 3.8 µM

COC(=O)N[C@H](C(=O)N1CCC[C@H]1c1nc2cc([C@H]3CC[C@H](c4cc5nc([C@@H]6CCCN6C(=O)[C@@H](NC(=O)OC)[C@@H](C)OC)[nH]c5cc4F)N3c3cc(F)c(N4CCC(c5ccc(F)cc5)CC4)c(F)c3)c(F)cc2[nH]1)[C@@H](C)OC [Pibrentasvir]
CC50 at 3 days [1, 5]: 22 ± 3 µM
inhibition of SARS-CoV-2 exonuclease activity ([4]; 500 nM RNA, 50 nM nsp14/nsp10, 37 °C, 15 min, varying amounts of inhibitor (Pibrentasvir 1, 10, 20 μM)): reduced exonuclease activity in a concentration-dependent manner
inhibition of SARS-CoV-2 exonuclease activity ([4]; 20 μM, Favipiravir-, NHC- and AT-9010-terminated RNA): exonuclease activity was largely abrogated
inhibition of SARS-CoV-2 exonuclease activity ([4]; 20 µM, RNA with delayed termination by Remdesivir, 400 nM RNA): exonuclease activity was inhibited
inhibition of SARS-CoV-2 exonuclease activity ([4]; 20 µM, Sofosbuvir- and Remdesivir-terminated RNA): exonuclease activity was substantially inhibited
inhibition of SARS-CoV-2 exonuclease activity ([4]; 20 µM, Tenofovir-terminated RNA): exonuclease activity was almost completely eliminated
Response (percentage of inhibition) ([2]; Conc1 0 nM, Conc2 10 nM): 2%
Response (percentage of inhibition) ([2]; Conc1 0 nM, Conc2 100 nM): 20%
Response (percentage of inhibition) ([2]; Conc1 0 nM, Conc2 1000 nM): 50%
Response (percentage of inhibition) ([2]; Conc1 0 nM, Conc2 5000 nM): 75%
Response ([2]; Drug2 10 nM alone (Drug1 0 nM)): 2
Response [2, 6]: 20
Response [2, 7]: 50
Response [2, 8]: 75
combination effect (SynergyFinder) ([2]; with Favipiravir): synergistic (scores above 10)
combination effect (SynergyFinder) ([2]; with RDV): synergistic (scores above 10)
combination effect (SynergyFinder) ([2]; with Sofosbuvir): additive (between 10 and −10)
combination effect (SynergyFinder) ([2]; with Tenofovir): additive (between 10 and −10)
EC25 ([3]; Calu-3 cells): 0.1 µM

NC(=O)c1nc(F)cnc1O [Favipiravir, 6-fluoro-3-hydroxy-2-pyrazinecarboxamide]
CC50 at 3 days [1]: 670 ± 118 µM
Response ([2]; Drug1 10 nM alone (Drug2 0 nM)): 10
Response [2, 10]: 49
Response [2, 11]: 63
Response [2, 12]: 70
virus titer ([3]; Drug Concentration 0.01 μM): 8.96E+05 PFU/mL and 1.41E+06 PFU/mL
virus titer ([3]; Drug Concentration 0.1 μM): 5.76E+05 PFU/mL and 7.04E+05 PFU/mL
virus titer ([3]; Drug Concentration 1 μM): 4.48E+05 PFU/mL and 5.12E+05 PFU/mL
virus titer ([3]; Drug Concentration 10 μM): 4.16E+05 PFU/mL and 2.24E+05 PFU/mL
EC50 [3, 13]: 7.8 µM
fold increase of potency ([3]; by Pibrentasvir (0.1 μM)): tenfold
inhibition of SARS-CoV-2 [3, 14]: 2 log10
reduction of virus replication [3, 14]: 99%
